Measurements as given in patent US5409933A, “Quinoline derivatives and processes for preparing the same” (priority 1993, dated 1995).
Structures can show the parent of a compound that is named as a salt. Where two headings read alike, the source gives them in different places.

What was measured:
Test in all cases: In Vitro Anti-Bacterial Activity Test (MIC, agar dilution)
Type in all cases: cell-based
[1] = system: Pseudomonas aeruginosa 1771M; details: Pseudomonas aeruginosa, 1771M, 18 h, Muller-Hinton agar, 37° C.
Protocol: (§1) The above in vitro antibacterial activity test was carried out in accordance with the agar culture medium dilution method (Hoechst 345) by using Muller-Hinton agar medium to determine the minimum inhibitory concentration (MIC).
(§2) The strains having 10^7 C.F.U./ml were inoculated on the culture medium, and the growth of the strains was observed after incubating them at 37° C. for 18 hours, in which ciprofloxacin was used as a control antibacterial agent. In this test, twenty typical strains were used.

Escherichia coli DC2 = details: Escherichia coli, DC2, 18 h
Protocol: as §1, §2

[2] = system: Staphylococcus aureus 285; details: Staphylococcus aureus, 285, 18 h, Staphylococcus aureus 285; Muller-Hinton agar, 37° C., 18 hours; read-out: MIC
Protocol: as §1, §2

[3] = system: Staphylococcus aureus 503; details: Staphylococcus aureus 503; Muller-Hinton agar, 37° C., 18 hours; read-out: MIC
Protocol: as §1, §2

[4] = system: Staphylococcus aureus SG511; details: Staphylococcus aureus SG511; Muller-Hinton agar, 37° C., 18 hours; read-out: MIC
Protocol: as §1, §2

Escherichia coli 078 = details: Escherichia coli 078; Muller-Hinton agar, 37° C., 18 hours; read-out: MIC
Protocol: as §1, §2

[5] = system: Streptococcus pyogenes 308A; details: Muller-Hinton agar, 37° C., 18 hours, read-out: MIC
Protocol: as §1, §2

Escherichia coli 1507E = details: Muller-Hinton agar, 37° C.
Protocol: as §1, §2

Escherichia coli TEM = details: Escherichia coli, 18 h, Muller-Hinton agar, 37° C.
Protocol: as §1, §2

[6] = system: Pseudomonas aeruginosa 1771; details: Pseudomonas aeruginosa 1771; Muller-Hinton agar, 37° C., 18 hours; read-out: MIC
Protocol: as §1, §2

[7] = system: Pseudomonas aeruginosa 1592E; details: Muller-Hinton agar, 37° C., 18 hours, read-out: MIC
Protocol: as §1, §2

Escherichia coli DC0 = details: Muller-Hinton agar, 37° C., 18 hours, read-out: MIC
Protocol: as §1, §2

[8] = system: Enterobacter cloacae 1321E; details: Enterobacter cloacae 1321E; Muller-Hinton agar, 37° C., 18 hours; read-out: MIC
Protocol: as §1, §2

[9] = system: Streptococcus faecium MD8b; details: Enterococcus faecium, Muller-Hinton agar, 37° C., 18 hours, read-out: MIC
Protocol: as §1, §2

[10] = system: Klebsiella aerogenes 1522E; details: Klebsiella aerogenes, 1522E, 18 h, Klebsiella aerogenes 1522E; Muller-Hinton agar, 37° C., 18 hours; read-out: MIC
Protocol: as §1, §2

[11] = system: Pseudomonas aeruginosa 9027; details: Muller-Hinton agar, 37° C., 18 hours, read-out: MIC
Protocol: as §1, §2

Enterobacter cloacae P99 = details: Enterobacter cloacae, P99, 18 h
Protocol: as §1, §2

Klebsiella oxytoca 1082E = details: Klebsiella oxytoca 1082E; Muller-Hinton agar, 37° C., 18 hours; read-out: MIC
Protocol: as §1, §2

Salmonella typhimurium = details: Salmonella enterica; Salmonella typhimurium; Muller-Hinton agar, 37° C., 18 hours; read-out: MIC
Protocol: as §1, §2

[12] = system: Streptococcus pyogenes 77A
Protocol: as §1, §2

[13] = Streptococcus pyogenes 77A, Muller-Hinton agar, 37° C., 18 hours, read-out: MIC

| SMILES | MIC [1] | MIC (Escherichia coli DC2) | MIC [2] | MIC [3] | MIC [4] | MIC (Escherichia coli 078) | MIC [5] | MIC (Escherichia coli 1507E; Escherichia coli, 1507E, 18 h) | MIC (Escherichia coli TEM) | MIC [6] | MIC [7] | MIC (Escherichia coli DC0) | MIC [8] | MIC [9] | MIC [10] | MIC [11] | MIC (Enterobacter cloacae P99) | MIC (Klebsiella oxytoca 1082E) | MIC (Salmonella typhimurium) | MIC [12, 13] | other results |
| --- | --- | --- | --- | --- | --- | --- | --- | --- | --- | --- | --- | --- | --- | --- | --- | --- | --- | --- | --- | --- | --- |
| CCOC(=O)C(C(=O)OCC)C(=O)c1cn(C2CC2)c2c(Cl)c(N3CC[C@@H](N)C3)c(F)cc2c1=O [Example 23, 1-cyclopropyl-6-fluoro-8-chloro-7-(3-3R-aminopyrrolidin-1-yl)-3-(2,2-diethoxycarbonylacetyl)-1,4-dihydro-4-oxoquinoline hydrochloride] | 0.098 µg/mL | 0.049 µg/mL | 0.049 µg/mL | 0.049 µg/mL | 0.049 µg/mL | < 0.002 µg/mL | 0.781 µg/mL | 0.013 µg/mL | 0.004 µg/mL | 0.391 µg/mL | 0.391 µg/mL | 0.195 µg/mL | < 0.002 µg/mL | 0.195 µg/mL | 0.025 µg/mL | 0.781 µg/mL | 0.004 µg/mL | < 0.002 µg/mL | 0.004 µg/mL | 0.195 µg/mL | – |
| CCOC(=O)C(C(=O)OCC)C(=O)c1cn(C2CC2)c2c(Cl)c(N3CC[C@H](N)C3)c(F)cc2c1=O [Example 24, 1-cyclopropyl-6-fluoro-8-chloro-7-(3-3S-aminopyrrolidin-1-yl)-3-(2,2-diethoxycarbonylacetyl)-1,4-dihydro-4-oxoquinoline hydrochloride] | 0.049 µg/mL | 0.025 µg/mL | 0.049 µg/mL | 0.049 µg/mL | 0.049 µg/mL | < 0.002 µg/mL | 0.391 µg/mL | – | < 0.002 µg/mL | 0.391 µg/mL | 0.391 µg/mL | 0.098 µg/mL | < 0.002 µg/mL | 0.391 µg/mL | 0.013 µg/mL | 0.391 µg/mL | < 0.002 µg/mL | < 0.002 µg/mL | < 0.002 µg/mL | 0.391 µg/mL | MIC (Escherichia coli 1507E; 18 hours, read-out: MIC): < 0.002 µg/mL |
| CCOC(=O)CC(=O)c1cn(C2CC2)c2c(Cl)c(N3CCC(N)C3)c(F)cc2c1=O (stereo not shown) [Example 25, 1-cyclopropyl-6-fluoro-8-chloro-7-(3-aminopyrrolidin-1-yl)-3-(2-ethoxycarbonylacetyl)-1,4-dihydro-4-oxoquinoline hydrochloride] | 0.098 µg/mL | 0.025 µg/mL | 0.049 µg/mL | 0.049 µg/mL | 0.098 µg/mL | < 0.002 µg/mL | 0.781 µg/mL | 0.025 µg/mL | < 0.002 µg/mL | 0.195 µg/mL | 0.195 µg/mL | 0.098 µg/mL | < 0.002 µg/mL | 0.391 µg/mL | 0.013 µg/mL | 0.391 µg/mL | 0.004 µg/mL | < 0.002 µg/mL | 0.004 µg/mL | 0.391 µg/mL | – |
| CCOC(=O)CC(=O)c1cn(C2CC2)c2c(Cl)c(N3CC[C@@H](N)C3)c(F)cc2c1=O [Example 26, 1-cyclopropyl-6-fluoro-8-chloro-7-(3-3R-aminopyrrolidin-1-yl)-3-(2-ethoxycarbonylacetyl)-1,4-dihydro-4-oxoquinoline hydrochloride] | 0.098 µg/mL | 0.098 µg/mL | 0.098 µg/mL | 0.098 µg/mL | 0.098 µg/mL | 0.004 µg/mL | 1.56 µg/mL | 0.025 µg/mL | 0.013 µg/mL | 0.781 µg/mL | 0.781 µg/mL | 0.195 µg/mL | 0.004 µg/mL | 0.781 µg/mL | 0.049 µg/mL | 0.781 µg/mL | 0.013 µg/mL | < 0.002 µg/mL | 0.007 µg/mL | – | MIC ([12]; Streptococcus pyogenes, 77A, 18 h): 0.781 µg/mL |
| CCOC(=O)CC(=O)c1cn(C2CC2)c2c(Cl)c(N3CC[C@H](N)C3)c(F)cc2c1=O [Example 27, 1-cyclopropyl-6-fluoro-8-chloro-7-(3-3S-aminopyrrolidin-1-yl)-3-(2-ethoxycarbonylacetyl)-1,4-dihydro-4-oxoquinoline hydrochloride] | 0.098 µg/mL | 0.013 µg/mL | 0.049 µg/mL | 0.049 µg/mL | 0.098 µg/mL | 0.004 µg/mL | 0.781 µg/mL | 0.013 µg/mL | < 0.002 µg/mL | 0.195 µg/mL | 0.195 µg/mL | 0.098 µg/mL | < 0.002 µg/mL | 0.391 µg/mL | 0.013 µg/mL | 0.391 µg/mL | 0.004 µg/mL | < 0.002 µg/mL | < 0.002 µg/mL | 0.391 µg/mL | – |
